Like-named read-outs stand apart in the source and are kept apart here. One block for each molecule: values may come before it.
Tests used:
Pseudomonas aeruginosa = assay: MIC, test tube serial dilution, Pseudomonas aeruginosa; assay type: cell-based
Klebsiella-Aerobacter [1] = assay: MIC, test tube serial dilution, Klebsiella-Aerobacter; assay type: cell-based
Escherichia coli = assay: MIC, test tube serial dilution, Escherichia coli; assay type: cell-based
Proteus vulgaris = assay: MIC, test tube serial dilution, Proteus vulgaris; assay type: cell-based
Staphylococcus aureus = assay: MIC, test tube serial dilution, Staphylococcus aureus; assay type: cell-based
Klebsiella-Aerobacter [2] = settings: in vivo; cited from earlier work
Serratia marcescens = assay: MIC, test tube serial dilution, Serratia marcescens; assay type: cell-based
Providencia = assay: MIC, test tube serial dilution, Providencia; assay type: cell-based
Proteus rettgeri = assay: MIC, test tube serial dilution, Proteus rettgeri; assay type: cell-based
Proteus mirabilis = assay: MIC, test tube serial dilution, Proteus mirabilis; assay type: cell-based
Proteus morganii = assay: MIC, test tube serial dilution, Proteus morganii; assay type: cell-based
Haemophilus influenzae = assay: MIC, test tube serial dilution, Haemophilus influenzae; assay type: cell-based
Streptococcus faecalis = assay: MIC, test tube serial dilution, Streptococcus faecalis; assay type: cell-based

SMILES: CC1(C)S[C@@H]2[C@H](NC(=O)[C@H](N)c3ccccc3)C(=O)N2[C@H]1C(=O)O [Ampicillin, α-aminobenzylpenicillin, reference compound]
MIC (Pseudomonas aeruginosa; Table 3, strain Walter): 200 U/ml | MIC (Pseudomonas aeruginosa; strain Bonn, 24 hours, 37°C): 200 U/ml | MIC (Pseudomonas aeruginosa; strain Walter, 24 hours, 37°C): 200 U/ml | MIC (Klebsiella-Aerobacter [1]; Table 3, strain 63): 100-200 U/ml | MIC (Klebsiella-Aerobacter [1]; Table 3, strain K 10): 100-200 U/ml | MIC (Escherichia coli; Table 3, strain 183/58): 200 U/ml | MIC (Escherichia coli; Table 3, strain A 261): > 400 U/ml | MIC (Escherichia coli; Table 3, strain C 165): 6 U/ml | MIC (Escherichia coli; strain 183/58, 24 hours, 37°C): 200 U/ml | MIC (Escherichia coli; strain A 261, 24 hours, 37°C): > 400 U/ml | MIC (Proteus vulgaris; Table 3, strain 1017): 400 U/ml | MIC (Proteus vulgaris; strain 1017, 24 hours, 37°C): 400 U/ml | MIC (Staphylococcus aureus; Table 3, strain 133): < 1 U/ml | effectiveness against infections (Klebsiella-Aerobacter [2]): not able to combat infections

SMILES: CC1(C)S[C@@H]2[C@H](NC(=O)[C@H](NC(=O)N3CCN(S(C)(=O)=O)C3=O)c3ccccc3)C(=O)N2[C@H]1C(=O)O [Example 4, Sodium D(-)-α-[(3-methylsulphonyl-imidazolidin-2-on-1-yl)-carbonylamino]-benzylpencillin]
MIC (Pseudomonas aeruginosa; strain A): 12.5 U/ml | MIC (Pseudomonas aeruginosa; strain Bonn, 24 hours, 37°C): 16 - 32 U/ml | MIC (Pseudomonas aeruginosa; strain E 27 500): 12.5 U/ml | MIC (Pseudomonas aeruginosa; strain V 10 797): 12.5 U/ml | MIC (Pseudomonas aeruginosa; strain V 10 818): 25 U/ml | MIC (Pseudomonas aeruginosa; strain V 10 887): 12.5 U/ml | MIC (Pseudomonas aeruginosa; strain V 10 900): 12.5 U/ml | MIC (Pseudomonas aeruginosa; strain Walter, 24 hours, 37°C): 4-16 U/ml | MIC (Klebsiella-Aerobacter [1]): < 0.8 U/ml | MIC (Klebsiella-Aerobacter [1]; aerogenes 418): 3 U/ml | MIC (Klebsiella-Aerobacter [1]; strain 62): 1.6 U/ml | MIC (Klebsiella-Aerobacter [1]; strain 63, 24 hours, 37°C): 4 - 16 U/ml | MIC (Klebsiella-Aerobacter [1]; strain 69): 1.6 U/ml | MIC (Klebsiella-Aerobacter [1]; strain 70): 3 U/ml | MIC (Klebsiella-Aerobacter [1]; strain 75): 6 U/ml | MIC (Klebsiella-Aerobacter [1]; strain 1852): > 400 U/ml | MIC (Klebsiella-Aerobacter [1]; strain 1871): 6 U/ml | MIC (Klebsiella-Aerobacter [1]; strain K 10, 24 hours, 37°C): 4 - 16 U/ml | MIC (Escherichia coli; strain 26/6): < 0.8 U/ml | MIC (Escherichia coli; strain 55 B 5): < 0.8 U/ml | MIC (Escherichia coli; strain 183/58, 24 hours, 37°C): 1 - 4 U/ml | MIC (Escherichia coli; strain 1465): > 400 U/ml | MIC (Escherichia coli; strain A 261, 24 hours, 37°C): 32 - 64 U/ml | MIC (Escherichia coli; strain B): < 0.8 U/ml | MIC (Escherichia coli; strain B 94): < 0.8 U/ml | MIC (Escherichia coli; strain C 165, 24 hours, 37°C): 1 - 4 U/ml | MIC (Escherichia coli; strain N): 1.6 U/ml | MIC (Escherichia coli; strain S): 32 U/ml | MIC (Escherichia coli; strain T 7): > 400 U/ml | MIC (Escherichia coli; strain T 20/2): > 400 U/ml | MIC (Serratia marcescens; strain 2): 1.6 U/ml | MIC (Serratia marcescens; strain 3): 12.5 U/ml | MIC (Serratia marcescens; strain 4): 1.6 U/ml | MIC (Serratia marcescens; strain 6): 1.6 U/ml | MIC (Serratia marcescens; strain 7): 1.6 U/ml | MIC (Serratia marcescens; strain 9): < 0.8 U/ml | MIC (Serratia marcescens; strain 13): < 0.8 U/ml | MIC (Serratia marcescens; strain K): < 0.8 U/ml | MIC (Providencia; strain 930): < 0.8 U/ml | MIC (Providencia; strain 933): 12.5 U/ml | MIC (Providencia; strain 945): < 0.8 U/ml | MIC (Proteus rettgeri; Sp.): 0.8 U/ml | MIC (Proteus rettgeri; strain 1 050): > 400 U/ml | MIC (Proteus rettgeri; strain 824): > 400 U/ml | MIC (Proteus mirabilis; Sp.): 1.6 U/ml | MIC (Proteus mirabilis; strain 1 235): 1.6 U/ml | MIC (Proteus mirabilis; strain 605): 3 U/ml | MIC (Proteus mirabilis; strain G.): < 0.4 U/ml | MIC (Proteus morganii; Sp.): 3 U/ml | MIC (Proteus morganii; strain 1 102): 200 U/ml | MIC (Proteus vulgaris; strain 3 400): 6 U/ml | MIC (Proteus vulgaris; strain 1017, 24 hours, 37°C): 1.6 U/ml | MIC (Haemophilus influenzae; strain 2 684): 0.1 U/ml | MIC (Haemophilus influenzae; strain 2 689): 0.25 U/ml | MIC (Haemophilus influenzae; strain 2 718): 0.1 U/ml | MIC (Haemophilus influenzae; strain 2 786): 0.06 U/ml | MIC (Haemophilus influenzae; strain 2 788): 0.5 U/ml | MIC (Streptococcus faecalis; ATCC 9790, 24 hours, 37°C): 16-32 U/ml | MIC (Streptococcus faecalis; strain 8 698): 1.6 U/ml | MIC (Streptococcus faecalis; strain 8 709): 12.5 U/ml | MIC (Streptococcus faecalis; strain 8 711): 3 U/ml | MIC (Staphylococcus aureus): 200 U/ml | MIC (Staphylococcus aureus; strain 1756 (BRL 1 756), 24 hours, 37°C): 64-256 U/ml | MIC (Staphylococcus aureus; strain P 209): < 0.8 U/ml | MIC (Staphylococcus aureus; strain SG 511): < 0.8 U/ml

MIC (Pseudomonas aeruginosa; Table 3, strain F 41): > 512 U/ml | MIC (Pseudomonas aeruginosa; Table 3, strain Walter): > 512 U/ml | MIC (Klebsiella-Aerobacter [1]; Table 3, strain 63): > 512 U/ml | MIC (Klebsiella-Aerobacter [1]; Table 3, strain K 10): > 512 U/ml | MIC (Escherichia coli; Table 3, strain 14): 128 U/ml | MIC (Escherichia coli; Table 3, strain 183/58): 256 U/ml | MIC (Escherichia coli; Table 3, strain A 261): > 512 U/ml | MIC (Escherichia coli; Table 3, strain C 165): 512 U/ml | MIC (Proteus morganii; Table 3, strain 932): 256 U/ml | MIC (Proteus vulgaris; Table 3, strain 1017): 256 U/ml | MIC (Streptococcus faecalis; Table 3, ATCC 9790): > 512 U/ml | MIC (Staphylococcus aureus; Table 3, strain 133): 16 U/ml | MIC (Staphylococcus aureus; Table 3, strain 1756E): 512 U/ml
SMILES: CC(=O)N1CCN(C(=O)NC(C(=O)N[C@@H]2C(=O)N3[C@@H]2SC(C)(C)[C@@H]3C(=O)O)c2c(Cl)cccc2Cl)C1=O (stereo partly drawn) [Penicillin No. 10 (Table 3), Sodium D,L-α-[(3-acetyl-imidazolidin-2-on-1-yl)carbonylamino]-2,6-dichloro-benzylpenicillin]

SMILES: CCS(=O)(=O)N1CCN(C(=O)N[C@@H](C(=O)N[C@@H]2C(=O)N3[C@@H]2SC(C)(C)[C@@H]3C(=O)O)c2ccccc2)C1=O [Penicillin No. 11 (Table 3), Sodium D(-)-α-[(3-ethylsulphonyl-imidazolidin-2-on-1-yl)-carbonylamino]-benzylpenicillin]
MIC (Pseudomonas aeruginosa; Table 3, strain F 41): 64 U/ml | MIC (Pseudomonas aeruginosa; Table 3, strain Walter): 64 U/ml | MIC (Klebsiella-Aerobacter [1]; Table 3, strain 63): 16 U/ml | MIC (Klebsiella-Aerobacter [1]; Table 3, strain K 10): 16 U/ml | MIC (Escherichia coli; Table 3, strain 14): < 1 U/ml | MIC (Escherichia coli; Table 3, strain 183/58): 2 U/ml | MIC (Escherichia coli; Table 3, strain A 261): 512 U/ml | MIC (Escherichia coli; Table 3, strain C 165): 4 U/ml | MIC (Proteus morganii; Table 3, strain 932): 16 U/ml | MIC (Proteus vulgaris; Table 3, strain 1017): 4 U/ml | MIC (Streptococcus faecalis; Table 3, ATCC 9790): 64 U/ml | MIC (Staphylococcus aureus; Table 3, strain 133): 2 U/ml | MIC (Staphylococcus aureus; Table 3, strain 1756E): 128 U/ml

MIC (Pseudomonas aeruginosa; Table 3, strain F 41): 128 U/ml | MIC (Pseudomonas aeruginosa; Table 3, strain Walter): 128 U/ml | MIC (Klebsiella-Aerobacter [1]; Table 3, strain 63): 64 U/ml | MIC (Klebsiella-Aerobacter [1]; Table 3, strain K 10): 32 U/ml | MIC (Escherichia coli; Table 3, strain 14): 4 U/ml | MIC (Escherichia coli; Table 3, strain 183/58): 4 U/ml | MIC (Escherichia coli; Table 3, strain A 261): > 256 U/ml | MIC (Escherichia coli; Table 3, strain C 165): 8 U/ml | MIC (Proteus morganii; Table 3, strain 932): 128 U/ml | MIC (Proteus vulgaris; Table 3, strain 1017): 16 U/ml | MIC (Streptococcus faecalis; Table 3, ATCC 9790): 128 U/ml | MIC (Staphylococcus aureus; Table 3, strain 133): 4 U/ml | MIC (Staphylococcus aureus; Table 3, strain 1756E): 256 U/ml
SMILES: CCS(=O)(=O)N1CCN(C(=O)NC(C(=O)N[C@@H]2C(=O)N3[C@@H]2SC(C)(C)[C@@H]3C(=O)O)c2ccc(Cl)cc2)C1=O (stereo partly drawn) [Penicillin No. 13 (Table 3), Sodium α-[(3-ethylsulphonyl-imidazolidin-2-on-1-yl)-carbonylamino]-p-chlorobenzylpenicillin]

SMILES: COC(=O)N1CCN(C(=O)NC(C(=O)N[C@@H]2C(=O)N3[C@@H]2SC(C)(C)[C@@H]3C(=O)O)c2ccc(Cl)cc2)C1=O (stereo partly drawn) [Penicillin No. 19 (Table 3), Sodium D,L-α-[(3-methoxycarbonyl-imidazolidin-2-on-1-yl)-carbonylamino]-4-chlorobenzylpenicillin]
MIC (Pseudomonas aeruginosa; Table 3, strain F 41): 64 U/ml | MIC (Pseudomonas aeruginosa; Table 3, strain Walter): 64 U/ml | MIC (Klebsiella-Aerobacter [1]; Table 3, strain 63): 4 U/ml | MIC (Klebsiella-Aerobacter [1]; Table 3, strain K 10): 32 U/ml | MIC (Escherichia coli; Table 3, strain 14): 4 U/ml | MIC (Escherichia coli; Table 3, strain 183/58): 16 U/ml | MIC (Escherichia coli; Table 3, strain A 261): > 256 U/ml | MIC (Escherichia coli; Table 3, strain C 165): 8 U/ml | MIC (Proteus morganii; Table 3, strain 932): 4 U/ml | MIC (Proteus vulgaris; Table 3, strain 1017): 32 U/ml | MIC (Streptococcus faecalis; unit assumed): 32 mg/L | MIC (Staphylococcus aureus; Table 3, strain 1756E): 128 U/ml

MIC (Pseudomonas aeruginosa; Table 3, strain F 41): 64 U/ml | MIC (Pseudomonas aeruginosa; Table 3, strain Walter): 32 U/ml | MIC (Klebsiella-Aerobacter [1]; Table 3, strain 63): 32 U/ml | MIC (Klebsiella-Aerobacter [1]; Table 3, strain K 10): 32 U/ml | MIC (Escherichia coli; Table 3, strain 14): 4 U/ml | MIC (Escherichia coli; Table 3, strain 183/58): 8 U/ml | MIC (Escherichia coli; Table 3, strain A 261): > 256 U/ml | MIC (Escherichia coli; Table 3, strain C 165): 8 U/ml | MIC (Proteus morganii; Table 3, strain 932): 32 U/ml | MIC (Proteus vulgaris; Table 3, strain 1017): 8 U/ml | MIC (Streptococcus faecalis; Table 3, ATCC 9790): 16 U/ml | MIC (Staphylococcus aureus; Table 3, strain 133): < 1 U/ml | MIC (Staphylococcus aureus; Table 3, strain 1756E): 64 U/ml
SMILES: COC(=O)N1CCN(C(=O)NC(C(=O)N[C@@H]2C(=O)N3[C@@H]2SC(C)(C)[C@@H]3C(=O)O)c2cccs2)C1=O (stereo partly drawn) [Penicillin No. 20 (Table 3), Sodium D,L-α-[(3-methoxycarbonyl-imidazolidin-2-on-1-yl)-carbonylamino]-α-thienyl(2)-methylpenicillin]

Source: US3983105A, “Penicillins” (Bayer Aktiengesellschaft, priority 1971, dated 1976)
